EC50 and IC50 data for 29 compounds are collected here from US20250368627A1, “PYRAZOLESULFONAMIDES AS ANTITUMOR AGENTS” (Peloton Therapeutics, Inc., a fully owned subsidiary of …, priority 2019, published 2025).

Each structure is given as a SMILES string. Where only a bound is given, the exact number is not on record here.

The subject of experiment [1] is HCT116 human colorectal carcinoma cells. The experiment can be described thus: CellTiter-Glo Luminescent Cell Viability Assay. As to conditions: HCT-116, 72 h, 3 days. The experiment is classed as cell-based. The protocol:
HCT116 human colorectal carcinoma cells were used in these experiments. HCT116 cells were obtained from ATCC. CellTiter-Glo® Luminescent Cell Viability Assay Reagent was obtained from Promega.
About 3,000 cells were seeded into 96-well plate with […] of media (DMEM supplemented with 10% FBS, 100 units penicillin, and […] streptomycin per mL) the day before the experiment. For compound treatment, the master plate was prepared as follows: 100× compound stocks were prepared in a 96-well plate by 1 to 3 serial dilutions of 0.5 mM DMSO stocks. Each master plate contained serial dilution of 8 compounds, including the control compound E7820. […] of 100× compound stock was added to each well of the assay plate to give final concentrations of […]. Each concentration was tested in triplicate. After 3 days, cell viability was determined using CellTiter-Glo Luminescent Cell Viability Assay Reagent following the manufacturer's recommended protocol. Briefly, […] of CellTiter-Glo reagent was added to each well of the assay plate and the contents were mixed for 3 minutes at 600 rpm on a shaker (Thermomixer R). The plate was immediately placed in a plate reader (Synergy 2) and the luminescence signal (0.5 second per well integration time) was determined. IC50 values were calculated using Dotmatics software.
A general note: ATP-based viability assays read luminescence as a measure of living cells.

For experiment [2], the target named is T1, DDB1DB/DCAF15 and RBM39 R1R2 complex (Homo sapiens, UniProt Q14498+Q66K64).
T1 construct: Amino acids 150 to 331 of RBM39 were cloned into pGEX4T3; GST (from vector pGEX4T3); TEV cleavage site (N); made in house; host or cells: DDB1DB/His-DCAF15: baculovirus/Sf9 co-expression; RBM39 R1R2: E. coli (pGEX4T3)
Put plainly: DCAF15 RBM39 Complex Formation Assay (FRET). The class given is binding. The conditions noted are these: FRET ratio Em 665/Em 615, incubated overnight at 4° C. The source says:
LANCE Eu-W1024 Anti-6×His and SureLight Allophycocyanin-anti-FLAG antibodies were purchased from Perkin Elmer. Human DDB1DB and His-tagged DCAF15 were co-expressed in baculovirus/sf9 system. While full length DDB1 contains three 7-bladed propellers termed A, B, and C, DDB1DB has only propeller A (amino acids 1 to 395) and C (amino acids 709-1140). The His-tagged DCAF15 contains six histidine residues directly preceding the DCAF15 sequence without any linker. An RBM39 fragment containing RRM1 and RRM2 was expressed in E. coli. Amino acids 150 to 331 of RBM39 were cloned into pGEX4T3 with an N-terminal TEV cleavage site and a C-terminal FLAG tag.
A compound of the present disclosure in DMSO (2 μL) was transferred to a 384-well assay plate. Compound was added in 14 points, 3-fold serial dilution (1 μM to 0.6 pico molar) in DMSO. […] FRET assay buffer (25 mM HEPES, pH 7.5, 100 mM NaCl, […], 0.5 mM TCEP, 0.005% Tween-20, 0.2 nM Eu—W1024 Anti-6×His, 50 nM SureLight Allophycocyanin-anti-FLAG, 20 nM DDB1DB/DCAF15, 50 nM RBM39 R1R2) was added and the resulting solution was incubated overnight at 4° C. The plate was placed in a plate reader (Spark 10) with excitation at 1=340 nm and emissions monitored at 1=665 nm and 1=615 nm, and the FRET ratio (Em 665/Em 615) was determined. Low signal controls containing no compound and high signal controls containing 10 mM indisulam were measured for each plate.
EC50 values were calculated using Dotmatics template equation for 4-parameter fit. Results are expressed as % formation using the following equation: […]

T1 sequence (Q66K64 whole entry, the tested form may be a part): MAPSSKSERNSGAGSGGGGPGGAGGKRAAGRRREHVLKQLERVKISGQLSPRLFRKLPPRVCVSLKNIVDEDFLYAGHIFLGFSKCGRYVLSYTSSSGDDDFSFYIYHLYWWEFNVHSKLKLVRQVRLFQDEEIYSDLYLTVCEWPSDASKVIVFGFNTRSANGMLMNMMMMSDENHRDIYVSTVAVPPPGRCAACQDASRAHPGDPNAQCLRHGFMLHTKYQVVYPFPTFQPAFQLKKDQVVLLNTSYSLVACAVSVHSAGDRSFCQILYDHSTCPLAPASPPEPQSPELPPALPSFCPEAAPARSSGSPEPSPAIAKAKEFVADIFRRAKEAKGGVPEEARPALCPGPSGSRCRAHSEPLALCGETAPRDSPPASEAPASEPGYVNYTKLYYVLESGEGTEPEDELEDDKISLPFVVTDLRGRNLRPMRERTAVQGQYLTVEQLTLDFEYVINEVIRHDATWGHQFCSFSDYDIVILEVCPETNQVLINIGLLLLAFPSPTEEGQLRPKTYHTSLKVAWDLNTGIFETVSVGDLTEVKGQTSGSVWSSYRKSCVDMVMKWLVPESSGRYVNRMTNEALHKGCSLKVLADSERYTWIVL
T1 sequence (Q14498 150-331): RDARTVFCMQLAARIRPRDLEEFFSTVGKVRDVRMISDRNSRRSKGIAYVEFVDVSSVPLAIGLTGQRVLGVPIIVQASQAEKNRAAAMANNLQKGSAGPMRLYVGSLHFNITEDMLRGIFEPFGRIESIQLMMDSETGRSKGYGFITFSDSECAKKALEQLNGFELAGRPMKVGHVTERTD
T1 sequence (Q16531 with tags, fused parts or gaps DEL396-708 partner): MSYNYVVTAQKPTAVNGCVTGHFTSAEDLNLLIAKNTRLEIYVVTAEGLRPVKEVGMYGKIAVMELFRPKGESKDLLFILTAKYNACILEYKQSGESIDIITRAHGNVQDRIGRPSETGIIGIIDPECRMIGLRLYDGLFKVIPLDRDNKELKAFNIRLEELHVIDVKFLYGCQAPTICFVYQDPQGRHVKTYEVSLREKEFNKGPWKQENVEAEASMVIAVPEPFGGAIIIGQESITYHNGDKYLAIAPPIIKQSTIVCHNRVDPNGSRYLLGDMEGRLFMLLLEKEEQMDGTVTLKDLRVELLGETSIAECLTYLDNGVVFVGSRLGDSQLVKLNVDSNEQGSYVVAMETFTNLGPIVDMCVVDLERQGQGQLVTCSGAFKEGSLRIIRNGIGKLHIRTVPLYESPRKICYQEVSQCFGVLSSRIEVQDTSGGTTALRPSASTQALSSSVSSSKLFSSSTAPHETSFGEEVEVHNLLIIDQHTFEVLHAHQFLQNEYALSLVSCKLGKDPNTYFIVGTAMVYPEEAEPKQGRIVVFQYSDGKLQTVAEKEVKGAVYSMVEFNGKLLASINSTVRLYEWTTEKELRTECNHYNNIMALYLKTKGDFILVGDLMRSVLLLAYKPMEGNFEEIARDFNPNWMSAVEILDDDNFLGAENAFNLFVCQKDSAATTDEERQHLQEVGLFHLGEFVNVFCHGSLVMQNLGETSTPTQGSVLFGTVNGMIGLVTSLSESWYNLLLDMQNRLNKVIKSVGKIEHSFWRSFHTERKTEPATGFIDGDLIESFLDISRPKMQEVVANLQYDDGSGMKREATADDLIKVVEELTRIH

For the compound `Cn1cc(S(=O)(=O)Nc2cccc3c(Cl)c[nH]c23)cn1` [Compound 1, N-(3-chloro-1H-indol-7-yl)-1-methyl-1H-pyrazole-4-sulfonamide], in experiment [1], the EC50 lay in the range of 250 to 1000 nM. The IC50 in experiment [2] was under 250 nM. For the compound `Cc1nn(C)c(C)c1S(=O)(=O)Nc1cccc2c(Cl)c[nH]c12` [Compound 2, N-(3-chloro-1H-indol-7-yl)-1,3,5-trimethyl-pyrazole-4-sulfonamide], the IC50 in experiment [2] was over 1000 nM. Same read-out and setting: as for `CCn1cc(S(=O)(=O)Nc2cccc3c(Cl)c[nH]c23)cn1` [Compound 4, N-(3-chloro-1H-indol-7-yl)-1-ethyl-pyrazole-4-sulfonamide], the figure is under 250 nM; as for `Cc1nn(C)cc1S(=O)(=O)Nc1cccc2c(Cl)c[nH]c12` [Compound 5, N-(3-chloro-1H-indol-7-yl)-1,3-dimethyl-pyrazole-4-sulfonamide], 250 to 1000 nM. Turning to `O=S(=O)(Nc1cccc2c(Cl)c[nH]c12)c1cnn(C(F)F)c1` [Compound 6, N-(3-chloro-1H-indol-7-yl)-1-(difluoromethyl)pyrazole-4-sulfonamide], the EC50 in experiment [1] was 250 to 1000 nM. Also, in experiment [2], the IC50 was under 250 nM. The matching figures for `O=S(=O)(Nc1cccc2c(Cl)c[nH]c12)c1cnn(CC(F)F)c1` [Compound 7, N-(3-chloro-1H-indol-7-yl)-1-(2,2-difluoroethyl)pyrazole-4-sulfonamide]: 250 to 1000 nM and under 250 nM. As for `O=S(=O)(Nc1cccc2c(Cl)c[nH]c12)c1cnn(C2CCOC2)c1` (stereo not drawn) [Compound 8, N-(3-chloro-1H-indol-7-yl)-1-tetrahydrofuran-3-yl-pyrazole-4-sulfonamide], the IC50 in experiment [2] is under 250 nM. Regarding `CS(=O)(=O)CCn1cc(S(=O)(=O)Nc2cccc3c(Cl)c[nH]c23)cn1` [Compound 9, N-(3-chloro-1H-indol-7-yl)-1-(2-methylsulfonylethyl)pyrazole-4-sulfonamide], in experiment [1], the EC50 fell in the range of 250 to 1000 nM. Besides, the IC50 in experiment [2] was under 250 nM. With `O=S(=O)(Nc1cccc2c(Cl)c[nH]c12)c1cn[nH]c1` [Compound 10, N-(3-chloro-1H-indol-7-yl)-1H-pyrazole-4-sulfonamide], the IC50 in experiment [2] was under 250 nM. Turning to `Cc1ccc(NS(=O)(=O)c2cnn(C(F)F)c2)c2[nH]cc(C#N)c12` [Compound 11, N-(3-cyano-4-methyl-1H-indol-7-yl)-1-(difluoromethyl)pyrazole-4-sulfonamide], in experiment [1], the EC50 was in the range of 250 to 1000 nM. In addition, the IC50 in experiment [2] was under 250 nM. Consider `CC(C)(C)OC(=O)N1CC(n2cc(S(=O)(=O)Nc3cccc4c(Cl)c[nH]c34)cn2)C1` [Compound 12, tert-butyl 3-[4-[(3-chloro-1H-indol-7-yl)sulfamoyl]pyrazol-1-yl]azetidine-1-carboxylate], for which the EC50 in experiment [1] was in the range of 250 to 1000 nM. Further, the IC50 in experiment [2] is under 250 nM.

With `O=S(=O)(Nc1cccc2c(Cl)c[nH]c12)c1cnn(CCO)c1` [Compound 13, N-(3-chloro-1H-indol-7-yl)-1-(2-hydroxyethyl)pyrazole-4-sulfonamide], the EC50 in experiment [1] lay within 250 to 1000 nM. In addition, the IC50 in experiment [2] was under 250 nM. For `N#CCn1cc(S(=O)(=O)Nc2cccc3c(Cl)c[nH]c23)cn1` [Compound 14, N-(3-chloro-1H-indol-7-yl)-1-(cyanomethyl)pyrazole-4-sulfonamide], the EC50 in experiment [1] is over 1000 nM. Also, in experiment [2], the half-inhibitory concentration (IC50) was under 250 nM. The matching figures for `O=S(=O)(Nc1cccc2c(Cl)c[nH]c12)c1cnn(-c2ncc(Cl)cc2F)c1` [Compound 15, 1-(5-chloro-3-fluoro-2-pyridyl)-N-(3-chloro-1H-indol-7-yl)pyrazole-4-sulfonamide]: over 1000 nM and under 250 nM. `NC(=O)Cn1cc(S(=O)(=O)Nc2cccc3c(Cl)c[nH]c23)cn1` [Compound 16, 2-[4-[(3-chloro-1H-indol-7-yl)sulfamoyl]pyrazol-1-yl]acetamide]: in experiment [1], the EC50 was in the range of 250 to 1000 nM. For the same compound, in experiment [2], the IC50 is under 250 nM. As to `NC(=O)Cn1cc(S(=O)(=O)n2cc(S(=O)(=O)Nc3cccc4c(Cl)c[nH]c34)cn2)cn1` [Compound 17, 2-[4-[4-[(3-chloro-1H-indol-7-yl)sulfamoyl]pyrazol-1-yl]sulfonylpyrazol-1-yl]acetamide], the EC50 in experiment [1] lay within 250 to 1000 nM. In addition, in experiment [2], the half-maximal inhibitory concentration (IC50) was under 250 nM. `O=S(=O)(Nc1cccc2c(Cl)c[nH]c12)c1cnn(C2CNC2)c1` [Compound 18, 1-(azetidin-3-yl)-N-(3-chloro-1H-indol-7-yl)pyrazole-4-sulfonamide]: in experiment [1], the concentration for a half-maximal effect (EC50) is over 1000 nM. Besides, in experiment [2], the IC50 was in the range of 250 to 1000 nM. On the same counts, the results for `O=S(=O)(Nc1cccc2c(Cl)c[nH]c12)c1cnn(S(=O)(=O)c2cn[nH]c2)c1` [Compound 19, N-(3-chloro-1H-indol-7-yl)-1-(1H-pyrazol-4-ylsulfonyl)pyrazole-4-sulfonamide] are 250 to 1000 nM and under 250 nM.

With `O=S(=O)(c1cnn(CC2CC2)c1)N(CC1CC1)c1cccc2c(Cl)c[nH]c12` [Compound 48, N-(3-chloro-1H-indol-7-yl)-N,1-bis(cyclopropylmethyl)pyrazole-4-sulfonamide], the half-inhibitory concentration (IC50) in experiment [2] was over 1000 nM.

`COCCN(c1cccc2c(Cl)c[nH]c12)S(=O)(=O)c1cnn(CCOC)c1` [Compound 50, N-(3-chloro-1H-indol-7-yl)-N,1-bis(2-methoxyethyl)pyrazole-4-sulfonamide]: the half-maximal inhibitory concentration (IC50) in experiment [2] is over 1000 nM. For `Cn1cc(S(=O)(=O)Nc2ccc(F)c3cc[nH]c23)cn1` [Compound 55, N-(4-fluoro-1H-indol-7-yl)-1-methyl-pyrazole-4-sulfonamide], in experiment [2], the concentration for half-maximal inhibition (IC50) is over 1000 nM. For the compound `O=S1(=O)CC(n2cc(S(=O)(=O)Nc3cccc4c(Cl)c[nH]c34)cn2)C1` [Compound 58, N-(3-chloro-1H-indol-7-yl)-1-(1,1-dioxothietan-3-yl)pyrazole-4-sulfonamide], the IC50 in experiment [2] is over 1000 nM.

`Cc1ccc(NS(=O)(=O)c2cnn(C)c2C#N)c2[nH]cc(C#N)c12` [Compound 131, 5-cyano-N-(3-cyano-4-methyl-1H-indol-7-yl)-1-methyl-pyrazole-4-sulfonamide]: the IC50 in experiment [2] was in the range of 250 to 1000 nM. For `Cn1ncc(S(=O)(=O)Nc2ccc(Cl)c3c(C#N)c[nH]c23)c1C#N` [Compound 132, N-(4-chloro-3-cyano-1H-indol-7-yl)-5-cyano-1-methyl-pyrazole-4-sulfonamide], the IC50 in experiment [2] was in the range of 250 to 1000 nM. The same measure, in the same setting: to `N#Cc1n[nH]c2c(NS(=O)(=O)c3cnn([C@H](CO)CF)c3)ccc(Cl)c12` [Compound 310, N-(4-chloro-3-cyano-1H-indazol-7-yl)-1-[(1R)-1-(fluoromethyl)-2-hydroxy-ethyl]pyrazole-4-sulfonamide] belongs under 250 nM; to `Cc1ccc(NS(=O)(=O)c2cnn([C@H](CO)CF)c2)c2[nH]cc(C#N)c12` [Compound 313, N-(3-cyano-4-methyl-1H-indol-7-yl)-1-[(1R)-1-(fluoromethyl)-2-hydroxy-ethyl]pyrazole-4-sulfonamide], under 250 nM. On the same count and under the same terms, to `Cc1ccc(NS(=O)(=O)c2cnn([C@H](CO)CF)c2)c2[nH]nc(C#N)c12` [Compound 314, N-(3-cyano-4-methyl-1H-indazol-7-yl)-1-[(1R)-1-(fluoromethyl)-2-hydroxy-ethyl]pyrazole-4-sulfonamide] belongs under 250 nM. On the same count and under the same terms, to `Cc1ccc(NS(=O)(=O)c2cnn(C(C)(C)CO)c2N)c2[nH]cc(C#N)c12` [Compound 315, 5-amino-N-(3-cyano-4-methyl-1H-indol-7-yl)-1-(2-hydroxy-1,1-dimethyl-ethyl)pyrazole-4-sulfonamide] belongs under 250 nM; to `CC(C)(CO)n1ncc(S(=O)(=O)Nc2ccc(Cl)c3c(C#N)c[nH]c23)c1N` [Compound 316, 5-amino-N-(4-chloro-3-cyano-1H-indol-7-yl)-1-(2-hydroxy-1,1-dimethyl-ethyl)pyrazole-4-sulfonamide], under 250 nM.

In general, EC50 refers to the concentration at which the effect is half-maximal. Usually IC50 stands for the concentration that inhibits the measured activity by half.
